What was measured:
human artery wall cells = experiment: Lipoproteins from 5F-injected mice tested in human artery wall cell cocultures (lipid hydroperoxides, monocyte chemotactic activity); type: cell-based; details: 20 μg/mouse/day
Protocol: Cocultures of human artery wall cells, monocyte isolation, isolation of lipoproteins by ultracentrifugation from the plasma of normal human donors or from mouse plasma by FPLC, and determination of lipid hydroperoxides and monocyte chemotactic activity were performed according to standard methods. All human subject participation was with informed consent approved by the UCLA Human Subjects Protection Committee. The protocol for testing mouse lipoproteins in the coculture was also performed as follows: Briefly, LDL and HDL were isolated by FPLC from mouse plasma from mice fed the atherogenic diet and injected with vehicle (PBS), or with peptide 5F at 20 μg/mouse/day. The cocultures were treated with human LDL at 200 μg/ml LDL protein, or mouse LDL at 200 μg/ml or with 200 μg/ml human LDL+human HDL at 350 μg/ml of HDL protein or mouse HDL at 300 μg/ml or with mouse HDL alone at 300 μg/ml. […] The supernatants were collected and analyzed for Auerbach lipid hydroperoxide equivalents.

[1] = Right angle light scattering, dissolution of EPC MLVs; type: physicochemical; details: 105 μM EPC, equimolar peptide, 25° C., 30 min
Protocol: EPC MLVs were prepared by evaporating a solution of EPC (Avanti Polar, AL) under nitrogen and hydrating the lipid film with phosphate-buffered saline (pH 7.4). […] Turbidity clarification was monitored for 30 min.

[2] = system: human artery wall cell cocultures; experiment: LDL-induced monocyte chemotactic activity with the homologous series of peptides (Example 3); type: cell-based; details: peptide at 100 μg/ml, LDL 250 μg protein/ml, 8 h
Protocol: Microtitre plates were treated with 0.1% gelatin at 37° C. overnight. HASMC were added at a confluent density of 1×10^5 cells/cm^2. […] HAEC were subsequently added at 2×10^5 cells/cm^2 and were allowed to grow, forming a complete monolayer of confluent HAEC in two days. In all experiments, HAEC and autologous HASMC (from the same donor) were used at passage levels of four to six. […] The cocultures were treated with native LDL(250 μg protein/ml) or presence of HDL (350 μg protein/ml) or peptides for 8 h.

[3] = Surface pressure measurements: monolayer exclusion pressure; type: physicochemical; details: EPC monolayer; reproducibility ± 1 dyn/cm
Protocol: An insoluble monolayer of egg phosphatidylcholine (EPC) was spread at the air-water interface in a Teflon dish at room temperature to give an initial surface pressure (πi) in the range of 5–45 dyn/cm. A solution of peptides in PBS containing 1.5M Gdn. HCl was carefully injected in to the subphase to give a final concentration of 50 μg/dL. The Gdn. HCl was diluted in the subphase to a final concentration of ≦1 mM to allow the peptides to renature. The subphase was stirred continuously and the increase in EPC monolayer surface pressure (Δπ) was recorded until a steady state value was obtained. The value of the initial surface pressure (πi) at which the peptides no longer penetrate the EYPC monolayer i.e. the exclusion pressure (πe), was calculated by extrapolating the πi vs Δπ linear regression fit to Δπ=0 dyn/cm.

[4] = DSC, bilayer to hexagonal phase transition of DiPoPE; type: physicochemical; details: heating scan rate 37°/h
Protocol: A known amount of phospholipid was dissolved in chloroform. For one set of samples, peptide was dissolved in methanol and added to a solution of DiPoPE in chloroforn/methanol (2:1, v:v). For both, pure lipid samples and the organic solutions of lipid and peptide, solvent was removed under a slow stream of nitrogen. Residual solvent was removed under vacuum. […] For DMPC, four consecutive scans with a 60 minute equilibration time between scans were taken. DSC thermograms were analyzed using the software provided by MicroCal Inc., Amherst, Mass., and Origin, version 5.0.
In the current study we prepared the peptide-lipid mixtures in two ways. One was by adding the peptide in organic solvent to the lipid in organic solvent followed by depositing the material as a film and subsequently hydrating with buffer. In the other method, the peptide and lipid were mixed after each was hydrated separately. If the mixture comes to equilibrium prior to the DSC analysis, it should not matter how the peptide and lipid are originally mixed. However, membrane systems can equilibrate slowly, in which case there may be more peptide in the lipid when it was incorporated at high concentrations into the lipid film.

[5] = system: C57BL/6J mice fed an atherogenic diet; experiment: Aortic lesion formation, daily intraperitoneal injection for 16 weeks, atherogenic diet; type: in vivo, mouse; details: 5F 20 μg or MoAI 50 μg daily i.p.
Protocol: The livers were removed and weighed.
Histological evaluations were performed according to the method of Paigen et al. (Paigen et al. (1990) Arteriosclerosis 10: 316–323) with some modifications. Briefly, hearts were fixed for at least one week in the phosphate-buffered formaldehyde solution. After removing the lower ⅔ of the hearts, the remaining tissue was frozen in OCT medium (Tissue-Tek, Miles Inc., Elkhart, Ind.) and sectioned in a cryostat at −20° C. Alternate 20 μm sections were saved on slides, and observed for the beginning of the aortic root. Sections were then collected for an additional 600 μm, or until the aortic cross-section was rounded and the valve cusps were no longer evident. Slides were stained with Oil Red O, and counterstained with hematoxylin. Stained lesion cross-sectional areas were measured in consecutive slides 80 μm apart by image analysis (SigmaScan Pro, SPSS Scientific, Chicago, Ill.), and the average lesion area was determined for each aortic sinus over the 400 μm length (five slides) providing the greatest mean lesion area.

[6] = Circular dichroism, percent helicity; type: physicochemical
Protocol: Briefly, spectra were obtained using a cell with a 0.1 cm path length and measurements were taken every nm from 260 nm to 190 nm at 25° C. All the CD spectra were signal averaged by adding four scans, base line corrected and smoothed. Peptide solutions in PBS, pH 7.4, were used at a concentration of 11 μM. Peptide-DMPC complexes (1:20 mol:mol) were used to determine the effect of lipid binding on the helicity of these peptides. These complexes were prepared by adding the appropriate volume of peptide solution to DMPC multilamellar vesicles. DMPC multilamellar vesicles were prepared as follows: A known amount of lipid was dissolved in ethanol and the solvent was removed by evaporating slowly under a thin stream of nitrogen. Residual solvent was removed by storing the lipid film under vacuum overnight. An appropriate volume of PBS, pH 7.4 was added to the thin lipid film to give the required final concentration of DMPC.

[7] = Survival, toxicity, body and liver weights after 16 weeks of injection
Protocol: Mice were acquired at six weeks of age, and randomized into groups of 20, except that a negative control group of 10 received no treatments and was given standard rodent chow. At eight weeks of age, the treatment groups were placed on a modified Thomas-Hartroft atherogenic diet (#TD88051; Teklad, Madison, Wis.), and injections were begun. […] Animals were injected intraperitoneally daily for 16 weeks, including weekends and holidays.
At the end of the study (week 16), at the last bleeding, the heart and the liver were excised. […] The livers were removed and weighed.

[8] = after 16 weeks, atherogenic diet, daily i.p., mean ± SEM

Ac-DWLKAFYDKVFEKFKEFF-NH2 [Peptide 5F, Ac-D-W-L-K-A-F-Y-D-K-V-F-E-K-F-K-E-F-F-NH2]
ability of HDL from injected mice to inhibit human LDL oxidation and LDL-induced monocyte chemotactic activity (human artery wall cells; mouse HDL 300 μg/ml with human LDL 200 μg/ml): as effective in inhibiting human LDL oxidation and preventing LDL-induced monocyte chemotactic activity in the cocultures as was normal human HDL | oxidation of, and monocyte chemotactic activity induced by, LDL from injected mice versus PBS (human artery wall cells; mouse LDL 200 μg/ml): less readily oxidized and induced less monocyte chemotactic activity | clarification of EPC MLVs [1]: clarified the EPC MLVs to a similar extents | inhibition of LDL-induced monocyte chemotaxis [2]: significant and similar inhibition | Monolayer Exclusion Pressure(πc) [3]: 45 dyn/cm | shift in TH of DiPoPE with mol fraction of peptide [4]: linear increase in TH | mean lesion cross-sectional area compared with PBS-injected animals [5]: significantly lower mean lesion area | Percent Helicity PBS ([6]; 11 μM peptide in PBS): 55% | Percent Helicity DMPC ([6]; 11 μM peptide, Peptide: DMPC 1:20 (mol/mol)): 76% | Body Weight [7, 8]: 21.60 ± 0.28 g | Liver Weight [7, 8]: 1.61 ± 0.04 g | Liver: Body (percentage) [7, 8]: 7.46 ± 0.23% | mice died from unexplained causes ([7]; during the prolonged diet studies, groups of 20): one

Reference: patent US7144862B2, “Orally administered peptides to ameliorate atherosclerosis” (The Regents of the University of California, priority 2000, dated 2006)
